Values joined by “and” are separate entries in the source; they are usually repeats but may differ in a detail not shown here. Equal values may be shown once.
Legend:
Assay type in all cases: cell-based
[1] = target: T1, 320 non-olfactory GPCRs (Homo sapiens, UniProt P0DMS8)
T1 construct: expressed in transfected cells; host or cells: HTLA cells

[2] = target: T2, 320 non-olfactory GPCRs (Homo sapiens, UniProt P08173)
T2 construct: expressed in transfected cells; host or cells: HTLA cells

[3] = target: T3, 320 non-olfactory GPCRs (Homo sapiens, UniProt Q5T601)
T3 construct: expressed in transfected cells; host or cells: HTLA cells

[4] = target: T4, 320 non-olfactory GPCRs (Homo sapiens, UniProt Q01718); details: receptor MC2R; replicate values, Fig_4g
T4 construct: expressed in transfected cells; host or cells: HTLA cells
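For Fold of Basal in this document: compound tested at 1 µM final concentration.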
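For GPCRome agonism screen response in this document: fold over basal response of each receptor without drug.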

T2 sequence (P08173 whole entry): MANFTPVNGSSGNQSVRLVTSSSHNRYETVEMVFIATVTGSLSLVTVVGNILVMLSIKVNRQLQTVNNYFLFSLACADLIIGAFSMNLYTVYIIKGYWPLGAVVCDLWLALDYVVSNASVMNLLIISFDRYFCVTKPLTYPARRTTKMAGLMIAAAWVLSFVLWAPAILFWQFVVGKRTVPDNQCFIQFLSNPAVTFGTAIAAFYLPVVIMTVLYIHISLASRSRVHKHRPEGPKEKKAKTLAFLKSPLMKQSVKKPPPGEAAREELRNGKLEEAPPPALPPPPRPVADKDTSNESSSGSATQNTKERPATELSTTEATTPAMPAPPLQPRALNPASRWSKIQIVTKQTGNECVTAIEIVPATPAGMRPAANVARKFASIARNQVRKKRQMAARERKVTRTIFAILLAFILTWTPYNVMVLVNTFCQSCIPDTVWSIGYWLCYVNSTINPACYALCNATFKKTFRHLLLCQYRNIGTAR
T1 sequence (P0DMS8 whole entry): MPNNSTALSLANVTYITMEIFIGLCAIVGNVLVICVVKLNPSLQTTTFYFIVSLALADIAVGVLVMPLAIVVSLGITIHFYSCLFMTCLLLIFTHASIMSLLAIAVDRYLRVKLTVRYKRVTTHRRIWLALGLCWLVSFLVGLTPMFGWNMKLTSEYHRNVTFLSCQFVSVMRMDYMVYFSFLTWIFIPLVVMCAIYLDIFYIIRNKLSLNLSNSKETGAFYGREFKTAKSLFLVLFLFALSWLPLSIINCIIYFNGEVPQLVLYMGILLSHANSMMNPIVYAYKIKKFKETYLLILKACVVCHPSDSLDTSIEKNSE
T3 sequence (Q5T601 20-910): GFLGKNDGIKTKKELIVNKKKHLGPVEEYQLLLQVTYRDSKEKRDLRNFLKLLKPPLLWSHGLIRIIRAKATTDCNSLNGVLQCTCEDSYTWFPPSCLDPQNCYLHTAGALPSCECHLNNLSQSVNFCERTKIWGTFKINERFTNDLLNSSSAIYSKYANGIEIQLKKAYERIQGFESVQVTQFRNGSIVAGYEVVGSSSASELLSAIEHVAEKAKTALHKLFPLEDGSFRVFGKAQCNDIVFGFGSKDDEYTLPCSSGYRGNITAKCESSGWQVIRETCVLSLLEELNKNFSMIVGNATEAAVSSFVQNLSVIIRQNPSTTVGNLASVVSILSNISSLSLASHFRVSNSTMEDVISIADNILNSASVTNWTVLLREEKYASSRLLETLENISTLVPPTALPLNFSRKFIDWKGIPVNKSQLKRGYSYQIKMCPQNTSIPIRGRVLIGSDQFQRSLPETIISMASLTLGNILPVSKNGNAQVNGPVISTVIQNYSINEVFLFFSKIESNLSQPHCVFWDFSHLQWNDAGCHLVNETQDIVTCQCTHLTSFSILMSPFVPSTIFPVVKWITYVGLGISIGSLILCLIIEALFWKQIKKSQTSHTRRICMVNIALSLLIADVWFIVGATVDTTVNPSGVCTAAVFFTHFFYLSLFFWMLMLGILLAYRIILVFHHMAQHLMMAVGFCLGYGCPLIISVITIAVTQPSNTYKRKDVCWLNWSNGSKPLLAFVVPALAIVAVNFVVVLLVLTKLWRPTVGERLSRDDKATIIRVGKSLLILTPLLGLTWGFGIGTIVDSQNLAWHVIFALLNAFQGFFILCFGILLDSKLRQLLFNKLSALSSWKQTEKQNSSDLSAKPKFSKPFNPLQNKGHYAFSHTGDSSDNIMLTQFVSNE
T4 sequence (Q01718 whole entry): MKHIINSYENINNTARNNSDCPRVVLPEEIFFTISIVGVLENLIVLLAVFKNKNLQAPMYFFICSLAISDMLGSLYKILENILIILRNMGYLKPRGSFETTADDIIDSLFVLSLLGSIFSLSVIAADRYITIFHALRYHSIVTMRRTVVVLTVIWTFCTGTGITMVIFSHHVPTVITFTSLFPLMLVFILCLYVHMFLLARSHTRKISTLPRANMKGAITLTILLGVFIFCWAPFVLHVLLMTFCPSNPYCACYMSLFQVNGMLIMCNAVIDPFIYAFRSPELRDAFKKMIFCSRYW

## CCOc1cccc2cc(C(C)NCC3(O)CCCCC3)oc12 (stereo not shown) [O4LE6]
[1]
  Fold of Basal: 1.06 and 1.364 and 1.085 and 1.781
[2]
  Fold of Basal: 0.6531 and 0.5382 and 0.5491 and 0.5885
[3]
  Fold of Basal: 0.7534 and 0.5781 and 0.7634
[4]
  GPCRome agonism screen response: 1.011 and 1.168 and 0.7811 and 1.192

From paper PMC7044277 (Nature Communications, 2020)
